Measured values published in patent US7714134B2, “Compounds and use of tetrahydropyridothiophenes” (4SC AG, priority 2004, dated 2010).

Legend:
[1] = test system: RKO (RKOp27) human colon adenocarcinoma cells; experiment: Alamar Blue cell viability assay, anti-proliferative/cytotoxic activity, RKO p27 uninduced; type: cell-based; settings: RKOp27, 72 h, proliferating cells, absence of the inducer Ponasterone A, 72 hours incubation
Procedure, shortened: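 RKOp27 colon adenocarcinoma subclones, uninduced, seeded at 4000 cells/well and treated 24 h later with semi-log compound dilutions in DMEM with 10% FCS, in quadruplicate. After 72 h at 37 °C, 5% CO2, viability read by Alamar Blue fluorescence (544/590 nm) relative to untreated cells; IC50 taken from concentration-effect curves.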

[2] = test system: RKO colon adenocarcinoma cells (RKOp27) arrested by expression of ectopic p27Kip1; experiment: Alamar Blue cell viability assay, cell cycle specific mode of action, RKO p27 induced (arrested by Ponasterone A-induced p27Kip1); type: cell-based; settings: Homo sapiens, RKOp27, 72 h, cells arrested by p27Kip1 induced with 10 μM Ponasterone A, 72 hours incubation
Procedure, shortened: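 RKOp27 cells were seeded at 16000 per well in DMEM/10% FCS with 10 μM Ponasterone A to induce p27Kip1 arrest, then given compound dilutions 24 h later for 72 h at 37 °C. Viability was read by Alamar Blue fluorescence (544/590 nm) as % of untreated cells. Arrested cells were compared with proliferating cells grown without inducer.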

IC50 [2] [µM] | SMILES | IC50 [1] [µM]
> 60 | N#Cc1c(NC(=O)c2ccccc2)sc2c1CCN(C(=O)OCCN1CCOCC1)C2 [Compound 67, 3-Cyano-2-[(1-phenyl-methanoyl)-amino]4,7-dihydro-5H-thieno[2,3-c]pyridine-6-carboxylic acid 2-morpholin-4-yl-ethyl ester] | ≤ 3
> 60 | COCC(=O)N1CCc2c(sc(NC(=O)c3ccccc3)c2C#N)C1 [Compound 32, N-[3-Cyano-6-(2-methoxy-ethanoyl)-4,6,7-tetrahydro-thieno[2,3-c]pyridin-2-yl]-benzamide] | ≤ 3
> 60 | N#Cc1c(NC(=O)c2ccccc2)sc2c1CCN(C(=O)OCc1cccnc1)C2 [Compound 63, 3-Cyano-2-[(1-phenyl-methanoyl)-amino]-4,7-dihydro-5H-thieno[2,3-c]pyridine-6carboxylic acid pyridin-3-ylmethyl ester] | ≤ 3
> 60 | N#Cc1c(NC(=O)c2ccccc2)sc2c1CCN(C(=O)Cc1c[nH]c3ccccc13)C2 [Compound 36, N-[3-Cyano-6-(2-1H-indol-3-yl-ethanoyl)-4,5,6,7-tetrahydro-thieno[2,3-c]pyridin-2-yl]-benzamide] | ≤ 3
> 60 | COc1ccc(S(=O)(=O)N2CCc3c(sc(NC(=O)c4ccccc4)c3C#N)C2)cc1 [Compound 79, N-[3-Cyano-6-(4-methoxy-benzenesulfonyl)-4,5,6,7-tetrahydro-thieno[2,3-c]pyridin-2-yl]-benzamide] | ≤ 3
> 100 | CC(=O)OCC(=O)N1CCc2c(sc(NC(=O)c3ccccc3)c2C#N)C1 [Compound 84, Acetic acid 2-3-cyano-2-[(1-phenyl-methanoyl)-amino]-4,7-dihydro-5H-thieno[2,3-c]pyridin-6-yl-2-oxo-ethyl ester] | ≤ 3
> 100 | N#Cc1c(NC(=O)c2ccccc2)sc2c1CCN(C(=O)SCCC(=O)O)C2 [Compound 103, 3-(1-{3-Cyano-2-[(1-phenyl-methanoyl)-amino]-4,7-dihydro-5H-thieno[2,3-c]pyridin-6-yl}-methanoylsulfanyl)-propionic acid] | ≤ 3
> 60 | CCOC(=O)N1CCc2c(sc(NC(=O)c3cccc(O)c3)c2C#N)C1 [Compound 53, 3-Cyano-2-{[1-(3-hydroxy-phenyl)-methanoyl]-amino}-4,7-dihydro-5H-thieno[2,3-c]pyridine-6-carboxylic acid ethyl ester] | ≤ 3
> 60 | CCCCOC(=O)N1CCc2c(sc(NC(=O)c3ccccc3)c2C#N)C1 [Compound 58, 3-Cyano-2-[(1-phenyl-methanoyl)-amino]-4,7-dihydro-5H-thieno[2,3-c]pyridine-6-carboxylic acid butyl ester] | ≤ 3
> 60 | N#Cc1c(NC(=O)c2ccccc2)sc2c1CCN(C(=O)OCc1ccccc1)C2 [Compound 61, 3-Cyano-2-[(1-phenyl-methanoyl)-amino]-4,7-dihydro-5H-thieno[2,3-c]pyridine-6-carboxylic acid benzyl ester] | ≤ 3
> 60 | CCOC(=O)N1CCc2c(sc(NC(=O)c3ccccc3C)c2C#N)C1 [Compound 52, 3-Cyano-2-[(1-o-tolyl-methanoyl)-amino]-4,7-dihydro-5H-thieno[2,3-c]pyridine-6-carboxylic acid ethyl ester] | ≤ 3
> 60 | N#Cc1c(NC(=O)c2ccccc2)sc2c1CCN(C(=O)OCCc1ccccc1)C2 [Compound 65, 3-Cyano-2-[(1-phenyl-methanoyl)-amino]-4,7-dihydro-5H-thieno[2,3-c]pyridine-6-carboxylic acid phenethyl ester] | ≤ 3
> 100 | N#Cc1c(NC(=O)c2ccccc2)sc2c1CCN(C(=O)CCC(N)=O)C2 [Compound 8] | ≤ 2
> 60 | N#Cc1c(NC(=O)c2ccccc2)sc2c1CCN(C(=O)CCc1nccs1)C2 [Compound 33, N-[3-Cyano-6-(3thiazol-2-yl-propanoyl)-4,5,6,7-tetrahydro-thieno[2,3-c]pyridin-2-yl]-benzamide] | ≤ 3
> 60 | CCOC(=O)N1CCc2c(sc(NC(=O)c3cccc([N+](=O)[O-])c3)c2C#N)C1 [Compound 45, 3-Cyano-2{[1-(3-nitro-phenyl)-methanoyl]-amino}-4,7-dihydro-5H-thieno[2,3-c]pyridine-6-carboxylic acid ethyl ester] | ≤ 3
> 100 | CCNC(=O)N1CCc2c(sc(NC(=O)c3ccccc3)c2C#N)C1 [Compound 98, 3-Cyano-2-[(1-phenyl-methanoyl)-amino]-4,7-dihydro-5H-thieno[2,3-c]pyridine-6-carboxylic acid ethylamide] | ≤ 3
> 60 | N#Cc1c(NC(=O)c2ccccc2)sc2c1CCN(C(=O)OCc1ccccn1)C2 [Compound 62, 3-Cyano-2-[(1-phenyl-methanoyl)-amino]-4,7-dihydro-5H-thieno[2,3-c]pyridine-6-carboxylic acid pyridin-2-ylmethyl ester] | ≤ 3
> 100 | CN(C)C(=O)CCC(=O)N1CCc2c(sc(NC(=O)c3ccccc3)c2C#N)C1 [Compound 83, N-[3-Cyano-6-(3-dimethylcarbamoyl-propanoyl)-4,5,6,7-tetrahydro-thieno[2,3-c]pyridin-2-yl]-benzamide] | ≤ 3
> 100 | COC(=O)CCC(=O)N1CCc2c(sc(NC(=O)c3ccccc3)c2C#N)C1 [Compound 22, 4-{3-Cyano-2-[(1-phenyl-methanoyl)-amino]-4,7-dihydro-5H-thieno[2,3-c]pyridin-6-yl}-4-oxo-butyric acid methyl ester] | ≤ 2
> 60 | CCOC(=O)N1CCc2c(sc(NC(=O)c3cccc(C)c3)c2C#N)C1 [Compound 51, 3-Cyano-2-[(1-m-tolyl-methanoyl)-amino]-4,7-dihydro-5H-thieno[2,3-c]pyridine-6-carboxylic acid ethyl ester] | ≤ 3
> 100 | Cc1ncsc1CCOC(=O)N1CCc2c(sc(NC(=O)c3ccccc3)c2C#N)C1 [Compound 17] | ≤ 2
